In patent publication US7053105B2, “Farnesyl transferase inhibiting quinoline and quinazoline derivatives as farnesyl transferase inhibitors” (Janssen Pharmaceutica, N.V., priority 2000, dated 2006):

Row | melting point [°C] | SMILES
1 | 223 | Cc1nc(-c2cccc(Cl)c2)c2cc(C(O)(c3ccc(Cl)cc3)c3cncn3C)ccc2n1 (stereo not drawn) [Example B13, 4-(3-chlorophenyl)-α-(4-chlorophenyl)-2-methyl-α-(1-methyl-1H-imidazol-5-yl)-6-quinazolinemethanol]
2 | 178 | Cn1cncc1C(O)(c1ccc(Cl)cc1)c1ccc2nc(-c3cccnc3)nc(-c3cccc(Cl)c3)c2c1 (stereo not drawn) [Example B26, 4-(3-chlorophenyl)-α-(4-chlorophenyl)-α-(1-methyl-1H-imidazol-5-yl)-2-(3-pyridinyl)-6-quinazolinemethanol]
3 | 205 | Cn1cncc1C(O)(c1ccc(Cl)cc1)c1ccc2nc(C=NO)cc(-c3cccc(Cl)c3)c2c1 (racemic) [Example B1, (±)-4-(3-chlorophenyl)-6-[(4-chlorophenyl)hydroxy(1-methyl-1H-imidazol-5-yl)methyl]-2-quinolinecarboxaldehyde, oxime]
4 | 160 | Cn1cncc1-c1nc(-c2cccc(Cl)c2)c2cc(C(O)(c3ccc(Cl)cc3)c3cncn3C)ccc2n1 (stereo not drawn) [Example B6, 4-(3-chlorophenyl)-α-(4-chlorophenyl)-α,2-bis(1-methyl-1H-imidazol-5-yl)-6-quinazolinemethanol]
5 | 80 | Cn1cncc1C(O)(c1ccc(Cl)cc1)c1ccc2nc(/C=C/C(N)=O)cc(-c3cccc(Cl)c3)c2c1 (racemic) [Example B11, (±)-(E)-3-[4-(3-chlorophenyl)-6-[(4-chlorophenyl)hydroxy(1-methyl-1H-imidazol-5-yl)methyl]-2-quinolinyl]-2-propenamide]
6 | 142 | CSc1nnc(C(O)(c2ccc(Cl)cc2)c2ccc3nc(C)cc(-c4cccc(Cl)c4)c3c2)n1C (stereo not drawn) [Example B14b, 4-(3-chlorophenyl)-α-(4-chlorophenyl)-2-methyl-α-[4-methyl-5-(methylthio)-4H-1,2,4-triazol-3-yl]-6-quinolinemethanol]
7 | 235 | Cn1cncc1C(O)(c1ccc(Cl)cc1)c1ccc2nc(N)nc(-c3cccc(Cl)c3)c2c1 (stereo not drawn) [Example B19, 2-amino-4-(3-chlorophenyl)-α-(4-chlorophenyl)-α-(1-methyl-1H-imidazol-5-yl)-6-quinazolinemethanol]
8 | 154 | Cn1cncc1C(O)(c1ccc(Cl)cc1)c1ccc2nc(C#Cc3ccccc3)cc(-c3cccc(Cl)c3)c2c1 (stereo not drawn) [Example B25, 4-(3-chlorophenyl)-α-(4-chlorophenyl)-α-(1-methyl-1H-imidazol-5-yl)-2-(phenylethynyl)-6-quinolinemethanol]
9 | 150 | Cc1cc(-c2cccc(Cl)c2)c2cc(C(O)(c3ccc(Cl)cc3)c3nncn3C)ccc2n1.O (centres unmarked) (hydrate or solvate)
10 | 128 | CSc1nnc(C(N)(c2ccc(Cl)cc2)c2ccc3nc(C)cc(-c4cccc(Cl)c4)c3c2)n1C (stereo not drawn) [Example B16b, 4-(3-chlorophenyl)-α-(4-chlorophenyl)-2-methyl-α-[4-methyl-5-(methylthio)-4H-1,2,4-triazol-3-yl]-6-quinolinemethanamine]
11 | 166 | Cc1cc(-c2cccc(Cl)c2)c2cc(C(O)(c3ccc(Cl)cc3)c3nnc(S)n3C)ccc2n1 (stereo not drawn) [Example B14a, 4-(3-chlorophenyl)-α-(4-chlorophenyl)-α-(5-mercapto-4-methyl-4H-1,2,4-triazol-3-yl)-2-methyl-6-quinolinemethanol]
